# How the values were obtained:
# [1] = test system: rat; settings: Subchronic oral toxicity in rodents, fischer, Feed, dose end: 13 week, group: systemic, systemic / clinical chemistry / alanine aminotransferase (alt/sgpt) / alanine aminotransferase (alt/sgpt) + systemic / clinical chemistry / …
# [2] = test system: rat; settings: Subchronic oral toxicity in rodents, fischer, Feed, dose end: 13 week, group: systemic, systemic / in life observation / body weight / body weight gain + systemic / in life observation / food consumption / food consumption + …
# [3] = test system: rat; settings: Prenatal developmental toxicity study, sprague dawley, Oral, Gavage/Intubation, dose end: 15 GD
# [4] = test system: rat; settings: Prenatal developmental toxicity study, sprague dawley, Oral, Gavage/Intubation, dose end: 15 GD; remark: listed apart in the source
# [5] = group: developmental, developmental / developmental malformation / bone / absent + developmental / developmental malformation / bone / bent + developmental / …
# [6] = group: maternal, systemic / in life observation / body weight / body weight gain
# [7] = group: developmental, developmental / developmental malformation / bone / exencephaly + developmental / developmental malformation / bone / thread-like + …
# [8] = group: maternal, systemic / in life observation / body weight / body weight gain + systemic / in life observation / food consumption / food consumption
smiles,measurement,setting,value
"CC(C)[NH3+].O=C([O-])COc1ccc(Cl)cc1Cl [2,4-D, isopropylamine salt]",LEL,[1],187 mg/kg/day
same,LOAEL,[1],187 mg/kg/day
same,NEL,[1],28 mg/kg/day
same,NOAEL,[1],28 mg/kg/day
same,LEL,[2],127 mg/kg/day
same,LOAEL,[2],127 mg/kg/day
same,NEL,[2],19 mg/kg/day
same,NOAEL,[2],19 mg/kg/day
same,LEL,[3]; [5],100 mg/kg/day
same,LOAEL,[3]; [5],100 mg/kg/day
same,NEL,[3]; [5],32.5 mg/kg/day
same,NOAEL,[3]; [5],32.5 mg/kg/day
same,LEL,[3]; [6],32.5 mg/kg/day
same,LOAEL,[3]; [6],32.5 mg/kg/day
same,NEL,[3]; [6],< 32.5 mg/kg/day
same,NOAEL,[3]; [6],< 32.5 mg/kg/day
same,LEL,[4]; [7],190 mg/kg/day
same,LOAEL,[4]; [7],190 mg/kg/day
same,NEL,[4]; [7],65 mg/kg/day
same,NOAEL,[4]; [7],65 mg/kg/day
same,LEL,[4]; [8],190 mg/kg/day
same,LOAEL,[4]; [8],190 mg/kg/day
same,NEL,[4]; [8],65 mg/kg/day
same,NOAEL,[4]; [8],65 mg/kg/day

# From EPA's ToxRefDB 2
